Source: US12091425B2 (AMGEN INC., priority 2016, dated 2024)

How the values were obtained:
[1] = tested on: OPM-2 human multiple myeloma cell line; test: Cell Viability Assay (OPM-2 10 FBS); type: cell-based; conditions: OPM-2 cells, CellTiter-Glo
Outline: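 ATP-based luminescence (CellTiter-Glo) measured after a 16 h compound treatment of OPM-2 cells seeded at 3000 cells/well in 10% FBS medium. IC50 values derived by 4-parameter logistic fitting of serial dilutions.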

[2] = target: T1, Mcl-1/Bim interaction, recombinant human Mcl-1 (171-327) (Homo sapiens, UniProt Q07820); test: Cell free Mcl-1: Bim Affinity Assay (Mcl-1 HTRF); type: binding
T1 construct: made in house
Outline: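 Biotin-Bim(51-76) peptide, TR-FRET readout, overnight incubation; IC50 from duplicate competition curves, 4-parameter fit.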

[3] = Homo sapiens, OPM-2, 16 h, 16 h
[4] = cell free Mcl-1:Bim TR-FRET, recombinant human Mcl-1 (171-327)
[5] = TR-FRET, 0.1 nM Mcl-1 (171-327), 0.05 nM biotin-Bim (51-76)
[6] = Homo sapiens, OPM-2, 16 h, 16 h incubation

T1 sequence (Q07820 171-327): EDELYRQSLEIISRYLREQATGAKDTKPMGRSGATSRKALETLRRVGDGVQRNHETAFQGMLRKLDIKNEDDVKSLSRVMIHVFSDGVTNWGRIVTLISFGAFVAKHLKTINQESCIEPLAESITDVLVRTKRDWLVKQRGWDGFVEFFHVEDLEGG

Structure (SMILES)	IC50 [1, 3]	IC50 [2, 4]	IC50 [2, 5]	IC50 [1, 6]	IC50 ([1]; 16 h)
C[C@@H]1[C@@H](C)/C=C/[C@H](O)[C@@H]2CC[C@H]2CN2C[C@@]3(CCCc4cc(Cl)ccc43)COc3ccc(cc32)C(=O)NS1(=O)=O (single isomer, unassigned) [Example 166]	–	–	0.000418 µM	–	2.07 µM
CO[C@H](C)CC1[C@@H](C)C/C=C/[C@H](O)[C@@H]2CC[C@H]2CN2C[C@@]3(CCCc4cc(Cl)ccc43)COc3ccc(cc32)C(=O)NS1(=O)=O (single isomer, unassigned) [Example 529]	–	0.00097 µM	–	–	0.754 µM
COCC[C@@H]1C[C@H](C)/C=C/[C@H](OC)[C@@H]2CC[C@H]2CN2C[C@@]3(CCCc4cc(Cl)ccc43)COc3ccc(cc32)C(=O)NS1(=O)=O (single isomer, unassigned) [Example 485]	–	0.000471 µM	–	–	0.557 µM
C[C@@H]1[C@@H](C)C/C=C/C[C@H](O)[C@@H]2CC[C@H]2CN2C[C@@]3(CCCc4cc(Cl)ccc43)COc3ccc(cc32)C(=O)NS1(=O)=O (single isomer, unassigned) [Example 555]	–	0.00477 µM	–	–	2.61 µM
COCCO[C@H]1/C=C/C[C@@H](C)CS(=O)(=O)NC(=O)c2ccc3c(c2)N(C[C@@H]2CC[C@H]21)C[C@@]1(CCCc2cc(Cl)ccc21)CO3 (single isomer, unassigned) [Example 375]	–	–	0.00773 µM	–	5.7 µM
C[C@H]1C/C=C/[C@H](O)[C@@H]2CC[C@H]2CN2C[C@@]3(CCCc4cc(Cl)ccc43)COc3ccc(cc32)C(=O)NS(=O)(=O)N1CCN1CCOCC1 [Example 66, (1S,3′R,6′R,7′S,8′E,11′S)-6-chloro-7′-hydroxy-11′-methyl-12′-(2-(4-morpholinyl)ethyl)-3,4-dihydro-2H,15′H-spiro[naphthalene-1,22′-[20]oxa[13]thia[1,12,14]triazatetracyclo[14.7.2.0^3,6.0^19,24]pentacosa[8,16,18,24]tetraen]-15′-one 13′,13′-dioxide]	0.492 µM	–	0.00231 µM	–	–
CC(C)OC(=O)C[C@@H]1[C@@H](C)C/C=C\[C@H](O)[C@@H]2CC[C@H]2CN2C[C@@]3(CCCc4cc(Cl)ccc43)COc3ccc(cc32)C(=O)NS1(=O)=O [Example 570]	–	0.00844 µM	–	–	3.02 µM
C[C@H]1/C=C/[C@@H](O)[C@@H]2CC[C@H]2CN2C[C@@]3(CCCc4cc(Cl)ccc43)COc3ccc(cc32)C(=O)NS(=O)(=O)CC1(C)C (single isomer, unassigned) [Example 494]	–	0.00881 µM	–	–	3.68 µM
COCCOCCN1[C@@H](C)C/C=C/[C@H](O)[C@@H]2CC[C@H]2CN2C[C@@]3(CCCc4cc(Cl)ccc43)COc3ccc(cc32)C(=O)NS1(=O)=O [Example 25, (1S,3′R,6′R,7′S,8′E,11′S)-6-chloro-7′-hydroxy-12′-(2-(2-methoxyethoxy)ethyl)-11′-methyl-3,4-dihydro-2H,15′H-spiro[naphthalene-1,22′-[20]oxa[13]thia[1,12,14]triazatetracyclo[14.7.2.0^3,6.0^19,24]pentacosa[8,16,18,24]tetraen]-15′-one 13,13′-dioxide]	0.167 µM	–	0.000246 µM	–	–
CC[C@@H]1CC[C@H](O)/C=C/[C@@H]2CC[C@H]2CN2C[C@@]3(CCCc4cc(Cl)ccc43)COc3ccc(cc32)C(=O)NS1(=O)=O (single isomer, unassigned) [Example 197]	–	–	0.00113 µM	–	2.6 µM
O=C1NS(=O)(=O)[C@@H](CCS(=O)(=O)Cc2ccccc2)CC/C=C/[C@H](O)[C@@H]2CC[C@H]2CN2C[C@@]3(CCCc4cc(Cl)ccc43)COc3ccc1cc32 (single isomer, unassigned) [Example 163]	–	–	0.00507 µM	–	18.9 µM

More lines, main results first:

IC50 [1, 3]	IC50 [2, 4]	IC50 [2, 5]	IC50 [1, 6]	Structure (SMILES)	IC50 ([1]; 16 h)
7 µM	0.00945 µM	–	–	O=C1NS(=O)(=O)CCOC2CCOC(C2)C2CCC2CN2CC3(CCCc4cc(Cl)ccc43)COc3ccc1cc32 (single isomer, unassigned) [Example 878]	–
–	–	0.00123 µM	0.702 µM	CCOC(=O)CCO[C@H]1/C=C/CC[C@@H](CC)S(=O)(=O)NC(=O)c2ccc3c(c2)N(C[C@@H]2CC[C@H]21)C[C@@]1(CCCc2cc(Cl)ccc21)CO3 [Example 1009, ethyl 3-(((1S,3′R,6′R,7′S,8′E,12′R)-6-chloro-12′-ethyl-13′,13′-dioxido-15′-oxo-3,4-dihydro-2H-spiro[naphthalene-1,22′-[20]oxa[13]thia[1,14]diazatetracyclo[14.7.2.0^3,6.0^19,24]pentacosa [8,16,18,24]tetraen]-7′-yl)oxy)propanoate]	–
0.186 µM	0.000416 µM	–	–	COC1CN(CCO[C@H]2/C=C/C[C@H](C)[C@@H](C)S(=O)(=O)NC(=O)c3ccc4c(c3)N(C[C@@H]3CC[C@H]32)C[C@@]2(CCCc3cc(Cl)ccc32)CO4)C1 [Example 525, (1S,3′R,6′R,7′S,8′E,11′S,12′R)-6-chloro-7′-(2-(3-methoxy-1-azetidinyl)ethoxy)-11′,12′-dimethyl-3,4-dihydro-2H,15′H-spiro[naphthalene-1,22′-[20]oxa[13]thia[1,14]diazatetracyclo[14.7.2.0^3,6.0^19,24]pentacosa [8,16,18,24]tetraen]-15′-one 13′,13′-dioxide 2,2,2-trifluoroacetic Acid]	–
0.374 µM	–	0.000358 µM	–	C[C@@H]1CC/C=C/[C@H](O[C@H]2CCOC2=O)[C@@H]2CC[C@H]2CN2C[C@@]3(CCCc4cc(Cl)ccc43)COc3ccc(cc32)C(=O)NS1(=O)=O [Example 413]	–
0.487 µM	–	0.000419 µM	–	C[C@H]1C/C=C/[C@H](O)[C@@H]2CC[C@H]2CN2C[C@@]3(CCCc4cc(Cl)ccc43)COc3ccc(cc32)C(=O)NS(=O)(=O)N1C [Example 83, (1S,3′R,6′R,7′S,8′E,11′S)-6-chloro-7′-hydroxy-11′,12′-dimethyl-3,4-dihydro-2H,15′H-spiro[naphthalene-1,22′-[20]oxa[13]thia[1,12,14]triazatetracyclo[14.7.2.0^3,6.0^19,24]pentacosa[8,16,18,24]tetraen]-15′-one 13′,13′-dioxide]	–
–	–	0.000573 µM	0.861 µM	CC[C@@H]1CC/C=C/[C@H](OCC(=O)NCCOC)[C@@H]2CC[C@H]2CN2C[C@@]3(CCCc4cc(Cl)ccc43)COc3ccc(cc32)C(=O)NS1(=O)=O [Example 1001, 2-(((1S,3′R,6′R,7′S,8′E,12′R)-6-chloro-12′-ethyl-13′,13′-dioxido-15′-oxo-3,4-dihydro-2H-spiro[naphthalene-1,22′-[20]oxa[13]thia[1,14]diazatetracyclo[14.7.2.0^3,6.0^19,24]pentacosa [8,16,18,24]tetraen]-7′-yl)oxy)-N-(2-methoxyethyl)acetamide]	–
0.232 µM	0.00182 µM	–	–	C[C@@H]1COCCN1CCO[C@H]1/C=C/C[C@H](C)[C@@H](C)S(=O)(=O)NC(=O)c2ccc3c(c2)N(C[C@@H]2CC[C@H]21)C[C@@]1(CCCc2cc(Cl)ccc21)CO3 [Example 523, (1S,3′R,6′R,7′S,8′E,11′S,12′R)-6-chloro-11′,12′-dimethyl-7′-(2-((3R)-3-methyl-4-morpholinyl)ethoxy)-3,4-dihydro-2H,15′H-spiro[naphthalene-1,22′-[20]oxa[13]thia[1,14]diazatetracyclo[14.7.2.0^3,6.0^19,24]pentacosa [8,16,18,24]tetraen]-15′-one 13′,13′-dioxide]	–
0.0442 µM	–	0.00116 µM	–	COC(=O)CCO[C@H]1/C=C/C[C@H](C)NS(=O)(=O)NC(=O)c2ccc3c(c2)N(C[C@@H]2CC[C@H]21)C[C@@]1(CCCc2cc(Cl)ccc21)CO3 [Example 70, methyl 3-(((1S,3′R,6′R,7′S,8′E,11′S)-6-chloro-11′-methyl-13′,13′-dioxido-15′-oxo-3,4-dihydro-2H-spiro [naphthalene-1,22′-[20]oxa[13]thia[1,12,14]triazatetracyclo[14.7.2.0^3,6.0^19,24]pentacosa[8,16,18,24]tetraen]-7′-yl)oxy)propanoate]	–
0.296 µM	–	0.000263 µM	–	COC[C@H]1[C@@H](C)C/C=C\[C@H](O)[C@@H]2CC[C@H]2CN2C[C@@]3(CCCc4cc(Cl)ccc43)COc3ccc(cc32)C(=O)NS1(=O)=O (single isomer, unassigned) [Example 457]	–
0.0993 µM	0.000788 µM	–	–	C[C@@H]1[C@@H](C)C/C=C/[C@H](OCCN2CCOC[C@@H]2C)[C@@H]2CC[C@H]2CN2C[C@@]3(CCCc4cc(Cl)ccc43)COc3ccc(cc32)C(=O)NS1(=O)=O [Example 534, (1S,3′R,6′R,7′S,8′E,11′S,12′R)-6-chloro-11′,12′-dimethyl-7′-(2-((3S)-3-methyl-4-morpholinyl)ethoxy)-3,4-dihydro-2H,15′H-spiro[naphthalene-1,22′-[20]oxa[13]thia[1,14]diazatetracyclo[14.7.2.0^3,6.0^19,24]pentacosa [8,16,18,24]tetraen]-15′-one 13′,13′-dioxide]	–
7.29 µM	0.000581 µM	–	–	C[C@@H](O)C[C@@H]1CC/C=C\[C@H](O)[C@@H]2CC[C@H]2CN2C[C@@]3(CCCc4cc(Cl)ccc43)COc3ccc(cc32)C(=O)NS1(=O)=O (single isomer, unassigned) [Example 550]	–
–	–	0.000424 µM	0.3 µM	CO[C@H]1/C=C/[C@H](C)[C@H](C)[C@@H](C)S(=O)(=O)NC(=O)c2ccc3c(c2)N(C[C@@H]2CC[C@H]21)C[C@@]1(CCCc2cc(Cl)ccc21)CO3 [Example 1047, (1S,3′R,6′R,7′S,8′E,10′S,11′S,12′R)-6-chloro-7′-methoxy-10′,11′,12′-trimethyl-3,4-dihydro-2H,15′H-spiro[naphthalene-1,22′-[20]oxa[13]thia[1,14]diazatetracyclo[14.7.2.0^3,6.0^19,24]pentacosa [8,16,18,24]tetraen]-15′-one 13′,13′-dioxide]	–
–	0.000539 µM	–	–	COC1C=CCC(OC)C(CC2CCCO2)S(=O)(=O)NC(=O)c2ccc3c(c2)N(CC2CCC21)CC1(CCCc2cc(Cl)ccc21)CO3 (single isomer, unassigned) [Example 642]	0.351 µM
